# Laboratory results published in patent US20220106304A1, “Transcription Factor BRN2 Inhibitory Compounds as Therapeutics and Methods for Their Use” (The University of British Columbia, priority 2018, published 2022).
# Legend:
# [1] = target: T1, BRN2 (Homo sapiens, UniProt P20265); experiment: cell-based; conditions: negative = activation; for inhibition at 10 µM: read-out: % BRN2 Inhibition (10 μM), 10 μM compound, 24 hours, 42D^ENZR cells stably expressing BRN2-luciferase reporter; for inhibition at 30 µM: read-out: % BRN2 Inhibition (30 μM), 30 μM compound, 24 hours, 42D^ENZR cells stably expressing BRN2-luciferase reporter
# T1 sequence (P20265 1-443): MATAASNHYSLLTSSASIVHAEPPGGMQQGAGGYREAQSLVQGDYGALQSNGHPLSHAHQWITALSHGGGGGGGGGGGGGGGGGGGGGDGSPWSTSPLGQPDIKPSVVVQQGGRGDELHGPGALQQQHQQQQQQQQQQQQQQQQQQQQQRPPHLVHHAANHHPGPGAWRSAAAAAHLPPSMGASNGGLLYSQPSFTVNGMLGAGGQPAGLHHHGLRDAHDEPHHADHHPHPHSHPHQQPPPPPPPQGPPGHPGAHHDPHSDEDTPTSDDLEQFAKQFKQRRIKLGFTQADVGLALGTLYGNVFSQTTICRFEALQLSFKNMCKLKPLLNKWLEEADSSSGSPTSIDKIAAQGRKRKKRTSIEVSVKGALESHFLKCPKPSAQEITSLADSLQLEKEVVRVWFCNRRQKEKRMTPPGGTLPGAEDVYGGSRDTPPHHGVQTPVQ
# [2] = Liver microsome metabolic stability, HLM; assay type: in vitro ADME; conditions: HLM (first of two values), 1 μM compound, 0.25 mg/mL protein
# Experimental: Potassium phosphate buffer (Kphos) was prepared by adding 0.647 g potassium phosphate monobasic (KH2PO4) and 3.527 g potassium phosphate dibasic ([…]) to 400 mL of Milli-Q water. pH of the buffer was adjusted to 7.4 and volume was made up to 500 mL.
# Microsomes (20 mg/mL) were diluted in KH2PO4 buffer to prepare a concentration of 0.357 mg/mL.
# Stock solutions of BRN2 inhibitors were prepared in DMSO at a concentration of 1 mM
# A stock solution of 3.33 mM NADPH (3.33×) was prepared by dissolving appropriate amount of NADPH in KH2PO4 buffer.
# Total Incubation volume: 100 μL
# Compound concentration: 1 μM
# Protein Concentration: 0.25 mg/mL
# An 1120 μL aliquot of Kphos buffer (50 mM, pH 7.4) containing liver microsomes (0.357 mg/mL) were added to individual 2 mL tubes (final concentration 0.25 mg/mL). Test compounds (1 mM) and positive controls were directly spiked into respective tubes to prepare a concentration of 1.428 μM (final concentration 1 μM). From the above mix, 70 μL was added to individual wells of 96 well reaction plates and pre-incubated in a 37° C. water bath for 5 min. All the reactions were initiated by adding 30 μL of 3.33 mM NADPH (final concentration 1 mM). Reactions without NADPH and buffer controls (minus NADPH) at 0 min and 60 min were also incubated to rule out non-NADPH metabolism or chemical instability in the incubation buffer. All reactions were terminated using 100 μL of ice-cold acetonitrile containing internal standard at 0, 5, 15, 30 and 60 min. The plates were centrifuged at 4000 RPM for 15 min and 100 μL aliquots were submitted for analysis by LC-MS/MS.
# Samples were monitored for parent compounds disappearance in MRM mode using LC-MS/MS.
# The percent remaining of test compounds and positive control in each sample was determined by considering peak area ratio in the 0 minute sample as 100%. The Half-life of compounds in microsomes is calculated by formula:
# Half-life (t½) (min)=0.693/k, where k is gradient of line determined from plot of peak area ratio (compound peak area/internal standard peak area) against time.
# In vitro intrinsic clearance (CL'int) (units in mL/min/kg) was calculated using the formula.
# [formula] • For liver microsomes, scaling factor used was 45 mg microsomal protein per gm liver. • Indicates liver weight (gm) which varies species wise. For mice the liver weights are 90 gm.
# Where data is not available “na” is inserted.
# [3] = tested on: 42D^ENZR cells; experiment: Cell proliferation (crystal violet), BRN2 expressing 42D^ENZR cells; assay type: cell-based; conditions: 42D cells, approximately 72 hours
# Experimental: Plate 42DENZR (˜7000 cells per well) and 16D^CRPC (˜5000 cells per well) cells in 96 well plate with a volume of 100 μL per well. • 2. Next day 1 mL aliquots of media are combined with 3× the desired concentration of compounds. The aliquots are vortexed and 50 μL of each 3× concentration is added to the 100 μL of media in each well to give the ix desired concentration.
# The following are the desired concentrations:
# 0, 10 nM, 100 nM, 500 nM, 1 μM, 2.5 μM, 5 μM, 10 μM, 15 μM, […], 30 μM. • 3. Approximately 72 hours later, 17 μL of 10% Glutaraldehyde is added to each well and plates are placed on a shaker for 20-30 minutes. • 4. Media is washed off the fixed cells by slow submersion in a container of water. Then the water is removed by tapping the plate upside down. • 5. 75 μL of Crystal Violet™ solution is added into the 96 well plates and placed on a shaker for ˜30 minutes. • 6. Media is washed off the fixed cells by repeated slow submersion in a container of water and the plates are allowed to dry over-night. • 7. Next day, 75 μL of Sorensen Solution is accurately pipetted into each well. The plates placed on a shaker for ˜30 minutes. • 8. Absorbance is measured in the plate at 590 nm.
structure (smiles),measurement,setting,value
"FC(F)(F)c1ccc2cc(-c3csc(-c4ccco4)n3)oc2c1 [VPC-18-51, 2-(Furan-2-yl)-4-(6-(trifluoromethyl)benzofuran-2-yl)thiazole]",inhibition at 10 µM,[1],62.5%
same,inhibition at 30 µM,[1],71.4%
same,Met Stab % (60 mins HLM/MLM),"[2]; percent remaining at 60 min, 1 mM NADPH",42%
same,half-life at 1 µM,"[2]; human, liver microsomes, pH 7.4, read-out: T1/2 in (mins HLM/MLM)",45 min
Clc1cc2cc(-c3csc(-c4ccc[nH]4)n3)oc2cc1Cl [VPC-18-142],inhibition at 10 µM,[1],29.1%
same,inhibition at 30 µM,[1],53.6%
same,IC50,[3],2500 nM
